From patent US20250207124A1, “COMPOSITIONS AND METHODS FOR EXPRESSING SYNTHETIC GENETIC ELEMENTS ACROSS DIVERSE MICROORGANISMS” (priority 2022, published 2025)
pIC50: −log10 of the molar value.

System: E. coli in vitro translation reaction
Experiment: PURExpress in vitro transcription/translation of a GFP reporter
Conditions: read-out: half-maximal inhibition (IC50) of translation of a GFP reporter; PURExpress (NEB) protein synthesis system; DNA encoding eGFP; endpoint fluorescence after 4 hours
Method: The PureExpress kit (NEB) was used in accordance with manufacture's protocol to assay for the in-vitro production of GFP. For each sample a 25 uL reaction was performed containing 100 ng DNA or 500 ng RNA template encoding GFP (transcription in this kit is via T7 RNA Polymerase), plus indicated amounts of purified compound dissolved in H2O. Reactions were loaded into a white 384 well plate and production of fluorescent GFP protein was monitored with a Synergy Ht Plate Reader (Bio-tek). Fluorescence reached an endpoint at 4 hours. To produce DNA template, a PCR product of the pT7-GFP gene was amplified (Kapa HiFi Polymerase) and purified by gel electrophoresis followed by gel purification (Qiagen). To produce RNA template, the DNA PCR product was transcribed with the HiScribe T7 High Yield RNA Synthesis kit (NEB), treated with DNasel, and purified by the Monarch RNA Purification Kit (NEB). RNA was quantified by Qubit.
To quantify IC50 values for translation inhibition activity (FIG. 14A), raw fluorescence values were linearly converted to percent activity. […] Graphpad Prism was used to plot a hyperbolic non-linear regression.

CC[C@H]1OC(=O)[C@H](C)[C@@H](O[C@H]2C[C@@](C)(OC)[C@@H](O)[C@H](C)O2)[C@H](C)[C@@H](O[C@@H]2O[C@H](C)C[C@H](N(C)C)[C@H]2O)[C@](C)(O)C[C@@H](C)C(=O)[C@H](C)[C@@H](O)[C@]1(C)O [erythromycin] was tested, and the pIC50 was 5.70.
